In patent publication US10550120B2, “Indole alkaloid compound having immune checkpoint inhibitory action” (TOHOKU UNIVERSITY, priority 2016, dated 2020):

Columns and labels:
[1] = tested on: IL-10; test: Measurement of human IL-10 amount in culture supernatant of MT2 cells with ELISA kit (Test 1); assay type: cell-based; conditions: 48±2 hours; for activity at 10 µM / activity at 20 µM / activity at 12.5 µM / activity at 25 µM: Homo sapiens, 48 h, DMSO control = 100%, read-out: % against control (IL-10 production)
Protocol: (§1) MT2 cells from human adult T-cell leukemia were used. Leukemia cells of human adult T-cell leukemia (ATL) express CD4 and CD25 molecules on the cell surface and are considered to be derived from Treg (Chen S. et al., International Immunology 18:269-277 (2005)). MT2 cells were used in experiments as models of Treg since the cells are CD4 positive, CD25 positive, and FOXP3 positive celles derived from ATL.
(§2) The example compounds (compounds 1-17) of the present invention were dissolved in dimethylsulfoxide (DMSO) to prepare each 50 mmol/L solution, which was preserved at −80° C.
The amount of IL-10 production in the control and the example compounds was measured to evaluate the inhibitory effect on IL-10 production of the example compounds of the present invention.
(1) MT2 cells are suspended in RPMI1640 medium (hereinafter referred to as “the medium”) supplemented with 10% fetal calf serum (FCS) and 1% penicillin/streptomycin (P/S) to give 3×10^5 cells/mL suspension, and 1 mL of the suspension was added to each well of a 24-well plate. […] The cell cultures were incubated 48±2 hours in a CO2 incubator (under a condition of 37° C., 5 CO2). DMSO was diluted 50-fold with the medium, and 20 μL of the diluent was added to the well to make a control of compounds 1-7. In addition, DMSO was diluted 50-fold with the medium, and 25.0 μL of the diluent was added to the well to make a control of compounds 8-17.
(2) A piece of the cell culture was sampled to count cells with a cell counter (BIO RAD TC-20). The cell culture was centrifuged at 300×g for 5 minutes and the supernatant was collected as a sample for IL-10 measurement. When not measured within a day, it was preserved in a freezer at −80° C.
(3) Human IL-10 ELISA kit II (BD OptEIA) was used on the measurement. The kit contains wells treated with anti-IL-10 antibody (8 wells/strip), Standard/Sample diluent, vials comprising freeze-dried IL-10 Standard (1280 pg/vial), ELISA diluent, 20× Wash Buffer, Detection antibody, Enzyme Concentrate, TMB One Step Substrate Reagent, Stop Solution, and cover sheets.
(4) To a vial containing IL-10 Standard was added […] Standard/Sample diluent, and the vial was stood at room temperature for 15 minutes to be dissolved (Standard sample stock solution 1L-10 concentration: 500 pg/mL).
(5) Standard samples in each concentration for making a standard curve were prepared as follows. Firstly, to 300 μL of the medium was added 300 μL of the standard sample stock solution, and the mixture was mixed with a Voltex mixer (250 pg/mL). Next, 300 μL of the standard sample of 250 pg/mL was added to 300 μL of the medium and the mixture was mixed with a Voltex mixer (125 pg/mL). The same procedures were successively repeated to prepare standard solutions of 62.5, 31.25, 15.625, and 7.8125 pg/mL. As 0 pg/mL standard solution, the medium was used.
(6) A kit containing wells treated with anti-IL-10 antibody (8 wells/strip) was warmed to room temperature and 50 μL of ELISA diluent in the kit was added into each well.
(7) To each well containing ELISA diluent, 100 μL of the standard samples of each concentration and each test sample (diluded 50-100 fold with medium) were added.
(8) After the wells were sealed with a cover sheet and gently tapped, they were left at room temperature for 2 hours.
(9) 20× Wash Buffer was diluted 20-fold with water to prepare 1× Wash Buffer.
(10) After the reaction was done for 2 hours, the solutions in each well were aspirated and washed 5 times with 300 μL of 1× Wash Buffer.
(11) After Enzyme Concentrate (4 μL per 8 wells) was added to Detection antibody (1 ml per 8 wells), the solution was mixed by a Vortex mixer and then a necessary amount of Working Detector was prepared.
(12) 100 μL of Working Detector was added to each well, covered with a cover sheet, and the wells were left at room temperature for an hour.
(13) After the reaction was done for an hour, the solutions in wells were aspirated and washed 7 times with 300 μL of 1× Wash Buffer. […]

[2] = tested on: CTLA-4; test: Intracellular staining of MT2 cells with fluorescence-labeled anti-CTLA-4 antibody and measurement by flow cytometry; assay type: cell-based, human; conditions: 48±2 hours; for Peak MFI of CTLA-4: isotype IgG2a subtracted, average of n=3
Protocol: as §1, §2
(1) MT2 cells were suspended in RPMI1640 medium (hereinafter referred to as “the medium”) supplemented with 10% fetal calf serum (FCS) and 1° penicillin/streptomycin (P/S) to give 3×10^5 cells/mL suspension and 3 mL of the suspension was added to each well of a 6-well plate. To each well were added 0.6 or 1.2 μL of the test compound solutions (compounds 1, 2, and 4), 0.75 or 1.5 μL of the test compound solution (compound 9), and 1.5 μL of the test compound solutions (compounds 8 and 10-17), and the cell cultures were incubated in a CO2 gas incubator (under 37° C., 5% CO2) and cultured for 48±2 hours. As a control of compound 1, 2 and 4, only 1.2 μL of DMSO was added to the well. In addition, as a control of compound 8-17, only 1.5 μL of DMSO was added to the well.
(2) A piece of the cell culture was sampled to count cells with a cell counter (BIO RAD TC-20). The cell culture was centrifuged at 300×g for 5 min, and the supernatant was removed. The residue was suspended in phosphate buffered saline (supplemented with 1% bovine serum albumin (BSA), without calcium and magnesium) (1% BSA/PBS) to adjust the concentration of cells to 5-10×10^6 cells/mL.
(3) To 5 ml tube, each 50 μL of the cell suspension was added.
(4) Foxp3/Transcription Factor Fix/Perm Concentrate (4×) (Cat. No. TNB-1020-L050) (Solution A) in FOXP3/Transcription Factor Staining kit (TONBO biosciences) was diluted with Foxp3/Transcription Factor Fix/Perm Diluent (1×) (Cat. No. TNB-1022-L160) (for dilution of Solution A) to prepare 1× Solution A.
(5) 1 mL of 1× Solution A was added to each tube and mixed by gentle pipetting. Subsequently, it was left at room temperature for 30 min, centrifuged at 300×g for […], and the supernatant was discarded.
(6) Flow Cytometry Perm Buffer (10×) (Cat. No. TNB-1213-L150) (Solution B) in the kit was diluted 10-fold with water to prepare 1× Solution B.
(7) 2 mL of 1× Solution B was added to the tube and centrifuged at 300×g for 5 min. The supernatant was discarded. 2 μL of 2% normal mouse serum/PBS was added to the tube and the tube was gently pipetted. Subsequently, it was left at room temperature for 15 min.
(8) In the CTLA-4 measurement, 20 μL of anti-CTLA-4 antibody (BECKMAN COULTER, CD152-PE clone BN13I M2282) or mouse IgG2a (BECKMAN COULTER, IgG2a (Mouse)-PE A09142) for the control was added to the tube and the tube was gently stirred. Subsequently, it was left in the dark at room temperature for 30 min, and 2 mL of the 1× Solution B was added thereto, the mixture was centrifuged at 300×g for 5 min, and the supernatant was discarded. 2 mL of the 1× Solution B was added to the tube again, the mixture was centrifuged at 300×g for 5 min, and the supernatant was discarded.
(9) Within 2 hours after the solution in the tube was suspended in 0.5 mL of 1% BSA/PBS, and the fluorescence at 577 nm was measured with 488 nm excitation with a flow cytometer (Sony: Cell Sorter SH800). The results were analyzed with software, FlowJo (Tree Star Inc.). The mean peak fluorescence intensity (MFI) of CTLA-4 and mean peak fluorescence intensity of isotype control IgG2a were calculated from histgrams of the measured fluorescence intensity and number of cells, and mean fluorescence intensity of IgG2a was subtracted from that of CTLA-4. Experiments were conducted in n=3, and the average values were shown.

[3] = Homo sapiens, 48 h, 25.0 μmol/L, DMSO control = 100%, read-out: % against control (CTLA-4 expression)

SMILES	IL-10 (ng/10^6 cells) ± standard deviate (n = 3) ([1]; 10 μmol/L) [ng/10^6 cells]	IL-10 (ng/10^6 cells) ± standard deviate (n = 3) ([1]; 20 μmol/L) [ng/10^6 cells]	activity at 10 µM ([1]; 10 μmol/L) [%]	activity at 20 µM ([1]; 20 μmol/L) [%]	IL-10 (ng/10^6 cells) ± standard deviate (n = 3) ([1]; 12.5 μmol/L) [ng/10^6 cells]	IL-10 (ng/10^6 cells) ± standard deviate (n = 3) ([1]; 25.0 μmol/L) [ng/10^6 cells]	activity at 12.5 µM ([1]; 12.5 μmol/L) [%]	activity at 25 µM ([1]; 25.0 μmol/L) [%]	Peak MFI of CTLA-4 ([2]; 25.0 μmol/L)	activity at 25 µM [2, 3] [%]	Peak MFI of CTLA-4 ([2]; 12.5 μmol/L)	activity at 12.5 µM ([2]; Homo sapiens, 48 h, 12.5 μmol/L, DMSO control = 100%, read-out: % against control (CTLA-4 expression)) [%]
COC(=O)C1=CN(CCc2c[nH]c3ccccc23)C(O)[C@H]2[C@@H]1C=CC2(O)CO (stereo partly drawn) [Compound 6]	17.6 ± 0.7	15.2 ± 0.4	95.2	81.8								
COC(=O)C1=CN(CCc2c[nH]c3ccccc23)C=C2[C@@H]1CC(OC)O[C@H]2C (stereo partly drawn) [Compound 3]	14.8 ± 0.3	11.8 ± 0.3	80	63.7								
COC(=O)C1=CN2CCc3c([nH]c4ccc(O)cc34)[C@@H]2[C@@H]2[C@@H](C)[C@@H](O)C[C@H]12 [Compound 16]					9.8 ± 0.3	8.6 ± 0.1	88.9	77.9	529	70.3		
CC1C(C=O)=C2CCOC(=O)C2=CN1CCc1c[nH]c2ccccc12 (stereo not drawn) [Compound 7]	17.9 ± 0.6	15.4 ± 0.4	96.5	83.1								
COC(=O)C1=CN2CCc3c([nH]c4cc(Cl)ccc34)[C@@H]2[C@@H]2[C@@H](C)[C@@H](O)C[C@H]12 [Compound 9]					11.1 ± 1.3	6.1 ± 1.3	67.7	37.5	539	52.8	778	76.3
COC(=O)C1=CN2CCc3c([nH]c4ccc(OC)cc34)[C@@H]2[C@@H]2[C@@H](C)[C@@H](O)C[C@H]12 [Compound 10]					8.8 ± 0.4	5.6 ± 0.3	93.5	59.6	570	56.3		
COC(=O)C1=CN2CCc3c([nH]c4c(C)cccc34)[C@@H]2[C@@H]2[C@@H](C)[C@@H](O)C[C@H]12 [Compound 11]					7.4 ± 0.2	5.6 ± 0.3	78.2	55.4	602	59.5		
COC(=O)C1=CN2CCc3c([nH]c4ccc(Br)cc34)[C@@H]2[C@@H]2[C@@H](C)[C@@H](O)C[C@H]12 [Compound 13]					7.7 ± 0.6	4.2 ± 0.2	81.2	44	775	91.6		
COC(=O)C1=CN2CCc3c([nH]c4ccc(Cl)cc34)[C@@H]2[C@@H]2[C@@H](C)[C@@H](O)C[C@H]12 [Compound 12]					7.1 ± 0.2	4.8 ± 0.3	75.7	50.9	485	57.2		
COC(=O)C1=CN2CCc3c([nH]c4cc(OC)ccc34)[C@@H]2[C@@H]2[C@@H](C)[C@@H](O)C[C@H]12 [Compound 8]					15.5 ± 1.2	7.9 ± 0.4	94.6	48.4	361	50		
COC(=O)C1=CN2CCc3c([nH]c4ccccc34)[C@@H]2[C@@]2(O)C(CO)=CC[C@H]12 [Compound 5]	19.7 ± 0.2	14.9 ± 0.4	106	80.5								
